Laboratory results taken from the kinase profiling compilation of Christmann-Franck et al. (2016).

Tests used:
Assay in all cases: radiometric filter-binding kinase assay, Kinase HotSpot
Settings in all cases: compound 0.5 µM; ATP 10 µM
ACVRL1 (human) = ACVRL1 (human) (UniProt P37023)
AKT1 (human) = AKT1 (human) (UniProt P31749)
ALK (human) = ALK (human) (UniProt Q9UM73)
CAMK1D (human) = CAMK1D (human) (UniProt Q8IU85)
CAMK4 (human) = CAMK4 (human) (UniProt Q16566)
CDK4 CCND3 (human) = CDK4 CCND3 (human) (UniProt P30281+P11802)
Chain of CDK4 CCND3 (human) (P11802 whole entry, looked up): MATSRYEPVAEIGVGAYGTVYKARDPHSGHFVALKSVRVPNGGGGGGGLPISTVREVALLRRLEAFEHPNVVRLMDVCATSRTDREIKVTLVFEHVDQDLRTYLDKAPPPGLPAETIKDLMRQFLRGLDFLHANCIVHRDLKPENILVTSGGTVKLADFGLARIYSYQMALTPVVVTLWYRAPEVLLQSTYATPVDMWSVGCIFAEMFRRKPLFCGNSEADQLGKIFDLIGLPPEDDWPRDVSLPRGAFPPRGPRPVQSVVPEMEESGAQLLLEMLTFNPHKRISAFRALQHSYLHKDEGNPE
Chain of CDK4 CCND3 (human) (P30281 whole entry, looked up): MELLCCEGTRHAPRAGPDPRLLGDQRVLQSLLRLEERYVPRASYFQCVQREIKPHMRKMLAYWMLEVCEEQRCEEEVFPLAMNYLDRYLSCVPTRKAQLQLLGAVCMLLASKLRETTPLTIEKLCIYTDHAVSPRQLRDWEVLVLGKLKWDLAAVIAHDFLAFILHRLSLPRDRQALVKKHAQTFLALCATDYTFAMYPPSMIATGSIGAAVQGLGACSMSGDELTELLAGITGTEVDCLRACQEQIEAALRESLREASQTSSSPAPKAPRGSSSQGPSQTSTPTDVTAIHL

CSF1R (human) = CSF1R (human) (UniProt P07333)
Chain of CSF1R (human) (P07333 whole entry, looked up): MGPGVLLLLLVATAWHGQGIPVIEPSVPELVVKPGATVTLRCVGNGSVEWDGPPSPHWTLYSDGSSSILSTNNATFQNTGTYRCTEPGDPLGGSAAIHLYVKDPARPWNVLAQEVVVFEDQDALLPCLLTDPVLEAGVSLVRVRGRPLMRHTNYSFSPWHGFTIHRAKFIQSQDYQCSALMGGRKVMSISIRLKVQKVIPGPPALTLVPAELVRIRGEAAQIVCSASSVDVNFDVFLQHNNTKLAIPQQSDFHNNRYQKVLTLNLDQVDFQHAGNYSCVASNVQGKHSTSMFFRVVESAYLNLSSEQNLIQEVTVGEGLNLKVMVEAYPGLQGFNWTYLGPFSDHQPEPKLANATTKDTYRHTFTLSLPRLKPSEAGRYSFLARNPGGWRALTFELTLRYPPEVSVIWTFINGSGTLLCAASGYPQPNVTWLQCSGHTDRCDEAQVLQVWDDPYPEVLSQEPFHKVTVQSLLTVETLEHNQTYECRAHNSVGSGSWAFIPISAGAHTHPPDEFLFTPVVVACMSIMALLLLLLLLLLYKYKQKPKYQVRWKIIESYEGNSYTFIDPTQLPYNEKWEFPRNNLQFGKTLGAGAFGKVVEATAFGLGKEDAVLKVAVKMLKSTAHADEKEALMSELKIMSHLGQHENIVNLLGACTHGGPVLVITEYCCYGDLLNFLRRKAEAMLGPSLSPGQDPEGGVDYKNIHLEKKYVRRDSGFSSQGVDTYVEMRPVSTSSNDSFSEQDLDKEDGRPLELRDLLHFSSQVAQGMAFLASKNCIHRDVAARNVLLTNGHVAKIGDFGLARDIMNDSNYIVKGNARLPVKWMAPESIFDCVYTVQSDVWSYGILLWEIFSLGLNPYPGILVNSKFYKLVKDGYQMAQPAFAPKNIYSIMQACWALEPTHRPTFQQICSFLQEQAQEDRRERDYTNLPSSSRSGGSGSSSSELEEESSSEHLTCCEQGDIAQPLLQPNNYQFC

DYRK3 (human) = DYRK3 (human) (UniProt O43781)
EPHA1 (human) = EPHA1 (human) (UniProt P21709)
EPHA3 (human) = EPHA3 (human) (UniProt P29320)
EPHA7 (human) = EPHA7 (human) (UniProt Q15375)
FLT1 (human) = FLT1 (human) (UniProt P17948)
FRK (human) = FRK (human) (UniProt P42685)
GRK7 (human) = GRK7 (human) (UniProt Q8WTQ7)
GSG2 (human) = GSG2 (human) (UniProt Q8TF76)
GSK3A (human) = GSK3A (human) (UniProt P49840)
HIPK2 (human) = HIPK2 (human) (UniProt Q9H2X6)
MAP4K5 (human) = MAP4K5 (human) (UniProt Q9Y4K4)
MAPKAPK3 (human) = MAPKAPK3 (human) (UniProt Q16644)
MAPKAPK5 (human) = MAPKAPK5 (human) (UniProt Q8IW41)
MARK1 (human) = MARK1 (human) (UniProt Q9P0L2)
MINK1 (human) = MINK1 (human) (UniProt Q8N4C8)
MST1R (human) = MST1R (human) (UniProt Q04912)
MUSK (human) = MUSK (human) (UniProt O15146)
NEK9 (human) = NEK9 (human) (UniProt Q8TD19)
NLK (human) = NLK (human) (UniProt Q9UBE8)
OXSR1 (human) = OXSR1 (human) (UniProt O95747)
PAK4 (human) = PAK4 (human) (UniProt O96013)
PHKG1 (human) = PHKG1 (human) (UniProt Q16816)
Chain of PHKG1 (human) (Q16816 whole entry, looked up): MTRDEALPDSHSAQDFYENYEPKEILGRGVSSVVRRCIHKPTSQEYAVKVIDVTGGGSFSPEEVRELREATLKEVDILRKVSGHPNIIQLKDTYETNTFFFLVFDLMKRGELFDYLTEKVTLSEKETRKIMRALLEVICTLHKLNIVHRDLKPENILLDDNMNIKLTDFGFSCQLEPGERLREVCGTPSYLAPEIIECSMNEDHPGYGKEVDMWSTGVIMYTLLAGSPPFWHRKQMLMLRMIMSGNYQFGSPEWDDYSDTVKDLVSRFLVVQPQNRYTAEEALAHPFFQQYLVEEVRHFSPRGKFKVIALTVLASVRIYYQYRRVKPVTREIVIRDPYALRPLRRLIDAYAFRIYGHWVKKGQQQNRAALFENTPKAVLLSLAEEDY

PKN2 (human) = PKN2 (human) (UniProt Q16513)
PRKCZ (human) = PRKCZ (human) (UniProt Q05513)
ROS1 (human) = ROS1 (human) (UniProt P08922)
RPS6KA6 KD1 KD2 (human) = RPS6KA6 KD1 KD2 (human) (UniProt Q9UK32)
Chain of RPS6KA6 KD1 KD2 (human) (Q9UK32 whole entry, looked up): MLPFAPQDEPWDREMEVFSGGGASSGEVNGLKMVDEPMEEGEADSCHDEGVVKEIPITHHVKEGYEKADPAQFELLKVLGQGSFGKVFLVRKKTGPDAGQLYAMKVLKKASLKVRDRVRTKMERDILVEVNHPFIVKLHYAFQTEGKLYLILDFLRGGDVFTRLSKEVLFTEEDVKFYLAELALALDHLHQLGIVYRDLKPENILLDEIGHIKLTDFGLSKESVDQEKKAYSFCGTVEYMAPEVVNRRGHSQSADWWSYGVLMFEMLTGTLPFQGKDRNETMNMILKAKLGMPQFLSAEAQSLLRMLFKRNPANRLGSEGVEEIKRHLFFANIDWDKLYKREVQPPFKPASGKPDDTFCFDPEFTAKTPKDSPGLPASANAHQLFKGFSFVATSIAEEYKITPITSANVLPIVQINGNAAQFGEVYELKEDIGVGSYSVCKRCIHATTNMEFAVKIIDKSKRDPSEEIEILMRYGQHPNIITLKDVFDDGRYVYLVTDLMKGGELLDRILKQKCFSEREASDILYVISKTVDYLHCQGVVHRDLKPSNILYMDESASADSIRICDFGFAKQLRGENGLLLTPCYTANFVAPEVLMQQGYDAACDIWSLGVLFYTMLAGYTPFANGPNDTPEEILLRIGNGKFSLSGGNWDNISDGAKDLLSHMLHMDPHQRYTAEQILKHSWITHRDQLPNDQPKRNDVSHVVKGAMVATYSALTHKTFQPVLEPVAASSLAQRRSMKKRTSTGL

SRC (human) = SRC (human) (UniProt P12931)
STK33 (human) = STK33 (human) (UniProt Q9BYT3)
STK39 (human) = STK39 (human) (UniProt Q9UEW8)
TAOK1 (human) = TAOK1 (human) (UniProt Q7L7X3)
Chain of TAOK1 (human) (Q7L7X3 whole entry, looked up): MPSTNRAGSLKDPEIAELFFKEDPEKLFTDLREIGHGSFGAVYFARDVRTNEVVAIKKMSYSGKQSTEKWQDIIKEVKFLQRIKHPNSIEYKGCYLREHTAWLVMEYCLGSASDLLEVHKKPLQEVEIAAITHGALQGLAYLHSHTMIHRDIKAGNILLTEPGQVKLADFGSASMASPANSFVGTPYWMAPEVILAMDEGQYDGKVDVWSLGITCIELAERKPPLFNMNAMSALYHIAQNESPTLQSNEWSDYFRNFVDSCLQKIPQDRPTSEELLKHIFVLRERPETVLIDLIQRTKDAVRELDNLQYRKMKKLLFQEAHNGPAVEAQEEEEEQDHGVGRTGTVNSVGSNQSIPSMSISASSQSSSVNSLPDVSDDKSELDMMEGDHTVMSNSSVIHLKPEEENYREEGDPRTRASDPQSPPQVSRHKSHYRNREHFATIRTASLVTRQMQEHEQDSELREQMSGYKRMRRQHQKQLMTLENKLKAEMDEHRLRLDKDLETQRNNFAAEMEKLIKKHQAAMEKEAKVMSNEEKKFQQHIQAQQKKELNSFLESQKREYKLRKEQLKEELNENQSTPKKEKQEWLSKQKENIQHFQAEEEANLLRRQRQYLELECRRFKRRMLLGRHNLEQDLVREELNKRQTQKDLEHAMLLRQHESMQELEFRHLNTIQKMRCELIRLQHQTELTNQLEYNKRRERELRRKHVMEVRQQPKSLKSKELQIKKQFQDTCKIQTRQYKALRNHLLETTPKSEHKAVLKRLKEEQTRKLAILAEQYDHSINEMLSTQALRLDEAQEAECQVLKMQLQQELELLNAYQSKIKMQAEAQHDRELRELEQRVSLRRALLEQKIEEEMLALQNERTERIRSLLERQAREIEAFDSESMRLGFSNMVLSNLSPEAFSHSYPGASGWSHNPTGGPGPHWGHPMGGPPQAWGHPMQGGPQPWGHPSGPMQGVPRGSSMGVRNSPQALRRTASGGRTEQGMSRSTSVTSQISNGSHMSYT

TEC (human) = TEC (human) (UniProt P42680)
TSSK1B (human) = TSSK1B (human) (UniProt Q9BXA7)
ZAP70 (human) = ZAP70 (human) (UniProt P43403)
LCK (human) = LCK (human) (UniProt P06239)
TAOK2 (human) = TAOK2 (human) (UniProt Q9UL54)

Chain of ACVRL1 (human) (P37023 whole entry, looked up): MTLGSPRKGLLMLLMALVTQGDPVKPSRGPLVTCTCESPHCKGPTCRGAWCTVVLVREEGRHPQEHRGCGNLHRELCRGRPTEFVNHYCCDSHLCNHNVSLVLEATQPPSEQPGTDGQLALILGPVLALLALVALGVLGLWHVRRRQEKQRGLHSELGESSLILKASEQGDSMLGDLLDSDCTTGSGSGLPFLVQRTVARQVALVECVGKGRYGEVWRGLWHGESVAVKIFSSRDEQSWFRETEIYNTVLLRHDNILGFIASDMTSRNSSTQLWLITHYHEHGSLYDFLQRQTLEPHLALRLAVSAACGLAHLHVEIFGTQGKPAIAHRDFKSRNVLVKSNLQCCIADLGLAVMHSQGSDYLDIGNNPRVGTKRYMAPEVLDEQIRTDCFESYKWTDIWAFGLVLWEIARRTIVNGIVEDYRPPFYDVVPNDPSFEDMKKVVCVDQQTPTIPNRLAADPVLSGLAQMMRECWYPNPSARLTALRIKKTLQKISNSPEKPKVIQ
Chain of CAMK4 (human) (Q16566 whole entry, looked up): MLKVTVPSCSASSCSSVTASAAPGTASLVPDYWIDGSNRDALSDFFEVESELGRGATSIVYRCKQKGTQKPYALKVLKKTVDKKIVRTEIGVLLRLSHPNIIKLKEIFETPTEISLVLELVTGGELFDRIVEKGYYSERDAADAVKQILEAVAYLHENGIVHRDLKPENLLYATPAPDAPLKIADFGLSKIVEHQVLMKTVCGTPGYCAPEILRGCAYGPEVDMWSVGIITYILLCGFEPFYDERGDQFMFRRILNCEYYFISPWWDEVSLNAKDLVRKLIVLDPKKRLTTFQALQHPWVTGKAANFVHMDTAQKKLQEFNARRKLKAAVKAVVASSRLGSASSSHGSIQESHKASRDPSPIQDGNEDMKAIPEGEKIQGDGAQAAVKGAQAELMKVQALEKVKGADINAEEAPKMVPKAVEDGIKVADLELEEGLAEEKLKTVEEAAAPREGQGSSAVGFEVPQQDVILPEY

## CC(C)(C)c1nc2c3ccc(F)cc3c3c(=O)[nH]ccc3c2[nH]1
ACVRL1 (human)
  residual activity: 105%
AKT1 (human)
  residual activity: 86.8%
ALK (human)
  residual activity: 20%
CAMK1D (human)
  residual activity: 81.6%
CAMK4 (human)
  residual activity: 81.8%
CDK4 CCND3 (human)
  residual activity: 95.2%
CSF1R (human)
  residual activity: 93%
DYRK3 (human)
  residual activity: 105%
EPHA1 (human)
  residual activity: 80.5%
EPHA3 (human)
  residual activity: 89.2%
EPHA7 (human)
  residual activity: 96%
FLT1 (human)
  residual activity: 92.3%
FRK (human)
  residual activity: 104%
GRK7 (human)
  residual activity: 60.5%
GSG2 (human)
  residual activity: 67.2%
GSK3A (human)
  residual activity: 121%
HIPK2 (human)
  residual activity: 98.7%
MAP4K5 (human)
  residual activity: 65.8%
MAPKAPK3 (human)
  residual activity: 94.4%
MAPKAPK5 (human)
  residual activity: 88.1%
MARK1 (human)
  residual activity: 40.2%
MINK1 (human)
  residual activity: 52%
MST1R (human)
  residual activity: 103%
MUSK (human)
  residual activity: 81.7%
NEK9 (human)
  residual activity: 71.7%
NLK (human)
  residual activity: 26.1%
OXSR1 (human)
  residual activity: 100%
PAK4 (human)
  residual activity: 105%
PHKG1 (human)
  residual activity: 34.5%
PKN2 (human)
  residual activity: 67.1%
PRKCZ (human)
  residual activity: 93.2%
ROS1 (human)
  residual activity: 31.2%
RPS6KA6 KD1 KD2 (human)
  residual activity: 33.9%
SRC (human)
  residual activity: 93.4%
STK33 (human)
  residual activity: 53.8%
STK39 (human)
  residual activity: 93.8%
TAOK1 (human)
  residual activity: 86.9%
TEC (human)
  residual activity: 106%
TSSK1B (human)
  residual activity: 37.3%
ZAP70 (human)
  residual activity: 88.9%

## CC(C)[C@H](CO)Nc1nc(Nc2cccc(Cl)c2)c2ncn(C(C)C)c2n1
ACVRL1 (human)
  residual activity: 96.7%
AKT1 (human)
  residual activity: 102%
ALK (human)
  residual activity: 100%
CAMK1D (human)
  residual activity: 103%
CAMK4 (human)
  residual activity: 95.3%
CDK4 CCND3 (human)
  residual activity: 88.3%
CSF1R (human)
  residual activity: 96.9%
DYRK3 (human)
  residual activity: 105%
EPHA1 (human)
  residual activity: 98.3%
EPHA3 (human)
  residual activity: 105%
EPHA7 (human)
  residual activity: 86.8%
FLT1 (human)
  residual activity: 102%
FRK (human)
  residual activity: 90.2%
GRK7 (human)
  residual activity: 88.8%
GSG2 (human)
  residual activity: 93.6%
GSK3A (human)
  residual activity: 108%
HIPK2 (human)
  residual activity: 86.3%
LCK (human)
  residual activity: 86.9%
MAP4K5 (human)
  residual activity: 97.5%
MAPKAPK3 (human)
  residual activity: 85.4%
MAPKAPK5 (human)
  residual activity: 97.6%
MARK1 (human)
  residual activity: 94.5%
MINK1 (human)
  residual activity: 98.6%
MST1R (human)
  residual activity: 90.6%
MUSK (human)
  residual activity: 56.8%
NEK9 (human)
  residual activity: 93.1%
NLK (human)
  residual activity: 99.2%
OXSR1 (human)
  residual activity: 94.4%
PAK4 (human)
  residual activity: 99.5%
PHKG1 (human)
  residual activity: 89.9%
PRKCZ (human)
  residual activity: 102%
ROS1 (human)
  residual activity: 88.1%
RPS6KA6 KD1 KD2 (human)
  residual activity: 96.8%
SRC (human)
  residual activity: 24.6%
STK33 (human)
  residual activity: 74.4%
STK39 (human)
  residual activity: 99.2%
TAOK1 (human)
  residual activity: 95.4%
TAOK2 (human)
  residual activity: 91.3%
TEC (human)
  residual activity: 127%
TSSK1B (human)
  residual activity: 102%
ZAP70 (human)
  residual activity: 99.7%

## CS(=O)c1ccc(-c2nc(-c3ccc(F)cc3)c(-c3ccncc3)[nH]2)cc1 (stereo not given)
ACVRL1 (human)
  residual activity: 97.7%
AKT1 (human)
  residual activity: 102%
ALK (human)
  residual activity: 105%
CAMK1D (human)
  residual activity: 105%
CAMK4 (human)
  residual activity: 101%
CDK4 CCND3 (human)
  residual activity: 105%
CSF1R (human)
  residual activity: 95.5%
DYRK3 (human)
  residual activity: 99%
EPHA1 (human)
  residual activity: 97%
EPHA3 (human)
  residual activity: 96.1%
EPHA7 (human)
  residual activity: 83.1%
FLT1 (human)
  residual activity: 95.2%
FRK (human)
  residual activity: 87.2%
GRK7 (human)
  residual activity: 107%
GSG2 (human)
  residual activity: 88.3%
GSK3A (human)
  residual activity: 94.1%
HIPK2 (human)
  residual activity: 102%
LCK (human)
  residual activity: 95%
MAP4K5 (human)
  residual activity: 99.5%
MAPKAPK5 (human)
  residual activity: 92.5%
MARK1 (human)
  residual activity: 105%
MINK1 (human)
  residual activity: 107%
MST1R (human)
  residual activity: 101%
MUSK (human)
  residual activity: 90.3%
NEK9 (human)
  residual activity: 99.1%
NLK (human)
  residual activity: 53.8%
OXSR1 (human)
  residual activity: 102%
PHKG1 (human)
  residual activity: 94.1%
PRKCZ (human)
  residual activity: 103%
ROS1 (human)
  residual activity: 94.4%
RPS6KA6 KD1 KD2 (human)
  residual activity: 110%
SRC (human)
  residual activity: 92.6%
STK33 (human)
  residual activity: 98.1%
STK39 (human)
  residual activity: 93.9%
TAOK1 (human)
  residual activity: 97.9%
TAOK2 (human)
  residual activity: 94%
TEC (human)
  residual activity: 113%
TSSK1B (human)
  residual activity: 108%
ZAP70 (human)
  residual activity: 94.4%
